From patent US11034650B2, “Compounds useful for treating a Mannheimia haemolytica or Histophilus somni infection” (Intervet Inc., priority 2016, dated 2021)
Values after ≈ are worked out from the molar mass of the structure shown.

Experiments:
Assay type in all cases: cell-based
[1] = tested on: Mannheimia haemolytica MH 6357 (M7/2, reference strain, cattle infection strain); assay: MIC, broth-microdilution (CLSI VET01-A4), strain MH 6357; settings: Mannheimia haemolytica strain MH 6357, broth-microdilution; unit assumed
In short: (§1)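 Read-out is unaided visual inspection for turbidity. The minimum inhibitory concentration is the lowest tested level without detectable growth across a two-fold compound series.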

[2] = tested on: Mannheimia haemolytica MH 6374 (ATCC 33396, reference strain); assay: MIC, broth-microdilution (CLSI VET01-A4), strain MH 6374; settings: Mannheimia haemolytica strain MH 6374, broth-microdilution; unit assumed
In short: as §1

[3] = tested on: Mannheimia haemolytica MH 10720 (154, BRD field isolate); assay: MIC, broth-microdilution (CLSI VET01-A4), strain MH 10720; settings: Mannheimia haemolytica strain MH 10720, broth-microdilution; unit assumed
In short: as §1

[4] = tested on: Mannheimia haemolytica MH 12587 (1071, BRD field isolate, macrolide-resistance: erm+, E+); assay: MIC, broth-microdilution (CLSI VET01-A4), strain MH 12587; settings: Mannheimia haemolytica strain MH 12587, broth-microdilution; unit assumed
In short: as §1

[5] = tested on: Mannheimia haemolytica MH 13065 (XB0446-6003.9, BRD field isolate); assay: MIC, broth-microdilution (CLSI VET01-A4), strain MH 13065; settings: Mannheimia haemolytica strain MH 13065, broth-microdilution; unit assumed
In short: as §1

[6] = tested on: Mannheimia haemolytica MH 13093 (XB0472-6014.1, BRD field isolate); assay: MIC, broth-microdilution (CLSI VET01-A4), strain MH 13093; settings: Mannheimia haemolytica strain MH 13093, broth-microdilution; unit assumed
In short: as §1

[7] = tested on: Pasteurella multocida PM 6267 (P 2225 (L386), reference strain, mouse infection strain); assay: MIC, broth-microdilution (CLSI VET01-A4), strain PM 6267; settings: Pasteurella multocida strain PM 6267, broth-microdilution; unit assumed
In short: as §1

[8] = tested on: Pasteurella multocida PM 6391 (ATCC 43137, reference strain); assay: MIC, broth-microdilution (CLSI VET01-A4), strain PM 6391; settings: Pasteurella multocida strain PM 6391, broth-microdilution; unit assumed
In short: as §1

[9] = tested on: Pasteurella multocida PM 10775 (080130003051, BRD field isolate); assay: MIC, broth-microdilution (CLSI VET01-A4), strain PM 10775; settings: Pasteurella multocida strain PM 10775, broth-microdilution; unit assumed
In short: as §1

[10] = tested on: Pasteurella multocida PM 12080 (IV102277-0093, BRD field isolate); assay: MIC, broth-microdilution (CLSI VET01-A4), strain PM 12080; settings: Pasteurella multocida strain PM 12080, broth-microdilution; unit assumed
In short: as §1

Structure (SMILES) | MIC MH 6357 [1] [mg/L] | MIC MH 6374 [2] [mg/L] | MIC MH 10720 [3] [mg/L] | MIC MH 12587 [4] [mg/L] | MIC MH 13065 [5] [mg/L] | MIC MH 13093 [6] [mg/L] | MIC PM 6267 [7] [mg/L] | MIC PM 6391 [8] [mg/L] | MIC PM 10775 [9] [mg/L] | MIC PM 12080 [10] [mg/L]
CC(C)([C@H](NC(=O)c1ccc(C#Cc2ccc(CNCc3ncccn3)nc2)cc1)C(=O)NO)S(C)(=O)=O [Compound 356] | 6.3 (≈ 11.7 µM) | 6.3 (≈ 11.7 µM) | 3.1 (≈ 5.78 µM) | 12.5 (≈ 23.3 µM) | 6.3 (≈ 11.7 µM) | 12.5 (≈ 23.3 µM) | 6.3 (≈ 11.7 µM) | 3.1 (≈ 5.78 µM) | 0.2 (≈ 0.373 µM) | 1.6 (≈ 2.98 µM)
Cc1cnc(CNCc2ccc(C#Cc3ccc(C(=O)N[C@H](C(=O)NO)C(C)(C)S(C)(=O)=O)cc3)cn2)o1 [Compound 357] | 0.8 (≈ 1.48 µM) | 0.8 (≈ 1.48 µM) | ≤ 0.1 | 1.6 (≈ 2.97 µM) | 0.8 (≈ 1.48 µM) | 1.6 (≈ 2.97 µM) | 0.8 (≈ 1.48 µM) | 0.4 (≈ 0.741 µM) | ≤ 0.1 | 0.2 (≈ 0.371 µM)
CC(C)(O)[C@H](NC(=O)c1ccc(C#Cc2ccc(CNCC#N)s2)cc1)C(=O)NO [Compound 358] | 3.1 (≈ 7.27 µM) | 1.6 (≈ 3.75 µM) | 0.8 (≈ 1.88 µM) | 6.3 (≈ 14.8 µM) | 6.3 (≈ 14.8 µM) | 6.3 (≈ 14.8 µM) | 0.8 (≈ 1.88 µM) | 1.6 (≈ 3.75 µM) | 0.2 (≈ 0.469 µM) | 0.8 (≈ 1.88 µM)
CC(C)(O)[C@H](NC(=O)c1ccc(C#Cc2ccc(CNCc3nccs3)s2)cc1)C(=O)NO [Compound 359] | 0.4 (≈ 0.825 µM) | 0.2 (≈ 0.413 µM) | ≤ 0.1 | 0.4 (≈ 0.825 µM) | 0.2 (≈ 0.413 µM) | 0.4 (≈ 0.825 µM) | ≤ 0.1 | ≤ 0.1 | 0.2 (≈ 0.413 µM) | ≤ 0.1
CC(C)(O)[C@H](NC(=O)c1ccc(C#Cc2ccc(CNCc3ncccn3)s2)cc1)C(=O)NO [Compound 360] | 0.8 (≈ 1.67 µM) | 1.6 (≈ 3.34 µM) | 0.8 (≈ 1.67 µM) | 6.3 (≈ 13.1 µM) | 1.6 (≈ 3.34 µM) | 6.3 (≈ 13.1 µM) | 0.4 (≈ 0.834 µM) | 1.6 (≈ 3.34 µM) | ≤ 0.1 | 0.4 (≈ 0.834 µM)
C=CCNCc1ccc(C#Cc2ccc(C(=O)N[C@H](C(=O)NO)C(C)(C)O)cc2)cn1 [Compound 361] | 3.1 (≈ 7.34 µM) | 0.8 (≈ 1.89 µM) | 0.4 (≈ 0.947 µM) | 3.1 (≈ 7.34 µM) | 1.6 (≈ 3.79 µM) | 3.1 (≈ 7.34 µM) | 0.4 (≈ 0.947 µM) | 0.4 (≈ 0.947 µM) | ≤ 0.1 | 0.2 (≈ 0.473 µM)
CC(C)(O)[C@H](NC(=O)c1ccc(C#Cc2ccc(CNCc3nccs3)nc2)cc1)C(=O)NO [Compound 362] | 3.1 (≈ 6.46 µM) | 0.8 (≈ 1.67 µM) | 0.4 (≈ 0.834 µM) | 3.1 (≈ 6.46 µM) | 1.6 (≈ 3.34 µM) | 3.1 (≈ 6.46 µM) | 0.2 (≈ 0.417 µM) | 0.4 (≈ 0.834 µM) | ≤ 0.1 | 0.2 (≈ 0.417 µM)
CC(C)(O)[C@H](NC(=O)c1ccc(C#Cc2ccc(CNCc3ncccn3)nc2)cc1)C(=O)NO [Compound 363] | 6.3 (≈ 13.3 µM) | 6.3 (≈ 13.3 µM) | 3.1 (≈ 6.53 µM) | 25 (≈ 52.7 µM) | 12.5 (≈ 26.3 µM) | 25 (≈ 52.7 µM) | 1.6 (≈ 3.37 µM) | 3.1 (≈ 6.53 µM) | 0.4 (≈ 0.843 µM) | 1.6 (≈ 3.37 µM)
CSC(C)(C)[C@H](NC(=O)c1ccc(C#Cc2ccc(CNCc3ccncc3)s2)cc1)C(=O)NO [Compound 364] | 0.8 (≈ 1.57 µM) | 0.8 (≈ 1.57 µM) | 0.2 (≈ 0.393 µM) | 1.6 (≈ 3.15 µM) | 0.8 (≈ 1.57 µM) | 0.8 (≈ 1.57 µM) | 0.4 (≈ 0.786 µM) | 0.4 (≈ 0.786 µM) | ≤ 0.1 | ≤ 0.1
CSC(C)(C)[C@H](NC(=O)c1ccc(C#Cc2ccc(CNCc3nccs3)s2)cc1)C(=O)NO [Compound 365] | 0.8 (≈ 1.55 µM) | 0.8 (≈ 1.55 µM) | 0.2 (≈ 0.389 µM) | 3.1 (≈ 6.02 µM) | 1.6 (≈ 3.11 µM) | 1.6 (≈ 3.11 µM) | 0.4 (≈ 0.777 µM) | 0.4 (≈ 0.777 µM) | ≤ 0.1 | ≤ 0.1
CSC(C)(C)[C@H](NC(=O)c1ccc(C#Cc2ccc(CNCc3ncccn3)s2)cc1)C(=O)NO [Compound 366] | 0.8 (≈ 1.57 µM) | 0.8 (≈ 1.57 µM) | 0.2 (≈ 0.392 µM) | 1.6 (≈ 3.14 µM) | 0.8 (≈ 1.57 µM) | 1.6 (≈ 3.14 µM) | 0.4 (≈ 0.785 µM) | 0.4 (≈ 0.785 µM) | ≤ 0.1 | 0.2 (≈ 0.392 µM)
CSC(C)(C)[C@H](NC(=O)c1ccc(C#Cc2ccc(CNCc3cccnc3)nc2)cc1)C(=O)NO [Compound 367] | 0.8 (≈ 1.59 µM) | 0.8 (≈ 1.59 µM) | 0.4 (≈ 0.794 µM) | 3.1 (≈ 6.16 µM) | 1.6 (≈ 3.18 µM) | 3.1 (≈ 6.16 µM) | 0.4 (≈ 0.794 µM) | 0.4 (≈ 0.794 µM) | ≤ 0.1 | 0.2 (≈ 0.397 µM)
CSC(C)(C)[C@H](NC(=O)c1ccc(C#Cc2ccc(CNCc3nccs3)nc2)cc1)C(=O)NO [Compound 368] | 0.8 (≈ 1.57 µM) | 0.8 (≈ 1.57 µM) | 0.4 (≈ 0.785 µM) | 1.6 (≈ 3.14 µM) | 0.8 (≈ 1.57 µM) | 1.6 (≈ 3.14 µM) | 0.4 (≈ 0.785 µM) | 0.4 (≈ 0.785 µM) | ≤ 0.1 | 0.2 (≈ 0.392 µM)
CC(C)([C@H](NC(=O)c1ccc(C#Cc2ccc(CNCc3nccs3)s2)cc1)C(=O)NO)S(C)(=O)=O [Compound 369] | 0.4 (≈ 0.732 µM) | 0.2 (≈ 0.366 µM) | ≤ 0.1 | 0.4 (≈ 0.732 µM) | 0.4 (≈ 0.732 µM) | 0.4 (≈ 0.732 µM) | ≤ 0.1 | ≤ 0.1 | ≤ 0.1 | ≤ 0.1
C=CCNCc1ccc(C#Cc2ccc(C(=O)N[C@H](C(=O)NO)C(C)(C)S(C)(=O)=O)cc2)cn1 [Compound 370] | 0.8 (≈ 1.65 µM) | 1.6 (≈ 3.3 µM) | 0.8 (≈ 1.65 µM) | 3.1 (≈ 6.4 µM) | 1.6 (≈ 3.3 µM) | 3.1 (≈ 6.4 µM) | 0.2 (≈ 0.413 µM) | 0.4 (≈ 0.825 µM) | ≤ 0.1 | 0.2 (≈ 0.413 µM)
CC(C)([C@H](NC(=O)c1ccc(C#Cc2ccc(CNCc3ccncc3)nc2)cc1)C(=O)NO)S(C)(=O)=O [Compound 371] | 1.6 (≈ 2.99 µM) | 1.6 (≈ 2.99 µM) | 0.8 (≈ 1.49 µM) | 3.1 (≈ 5.79 µM) | 1.6 (≈ 2.99 µM) | 3.1 (≈ 5.79 µM) | 0.2 (≈ 0.373 µM) | 0.2 (≈ 0.373 µM) | ≤ 0.1 | 0.2 (≈ 0.373 µM)
CC(C)([C@H](NC(=O)c1ccc(C#Cc2ccc(CNCC#N)nc2)cc1)C(=O)NO)S(C)(=O)=O [Compound 372] | 6.3 (≈ 13 µM) | 12.5 (≈ 25.9 µM) | 3.1 (≈ 6.41 µM) | 25 (≈ 51.7 µM) | 12.5 (≈ 25.9 µM) | 25 (≈ 51.7 µM) | 1.6 (≈ 3.31 µM) | 1.6 (≈ 3.31 µM) | 0.4 (≈ 0.827 µM) | 0.8 (≈ 1.65 µM)
CC(C)([C@H](NC(=O)c1ccc(C#Cc2ccc(CNCc3cccnc3)nc2)cc1)C(=O)NO)S(C)(=O)=O [Compound 373] | 1.6 (≈ 2.99 µM) | 3.1 (≈ 5.79 µM) | 0.4 (≈ 0.747 µM) | 6.3 (≈ 11.8 µM) | 3.1 (≈ 5.79 µM) | 3.1 (≈ 5.79 µM) | 0.4 (≈ 0.747 µM) | 0.8 (≈ 1.49 µM) | ≤ 0.1 | 0.4 (≈ 0.747 µM)
CC(C)([C@H](NC(=O)c1ccc(C#Cc2ccc(CNCc3nccs3)nc2)cc1)C(=O)NO)S(C)(=O)=O [Compound 374] | 0.8 (≈ 1.48 µM) | 0.8 (≈ 1.48 µM) | 0.4 (≈ 0.738 µM) | 3.1 (≈ 5.72 µM) | 1.6 (≈ 2.95 µM) | 3.1 (≈ 5.72 µM) | 0.2 (≈ 0.369 µM) | 0.2 (≈ 0.369 µM) | ≤ 0.1 | ≤ 0.1
O=C(N[C@@H](CO)C(=O)NO)c1ccc(C#Cc2ccc([N+](=O)[O-])cc2)cc1 [Compound 375, N-[(1S)-2-(hydroxyamino)-1-(hydroxymethyl)-2-oxo-ethyl]-4-[2-(4-nitrophenyl)ethynyl]benzamide] | 1.6 (≈ 4.33 µM) | 3.1 (≈ 8.39 µM) | 0.8 (≈ 2.17 µM) | 6.3 (≈ 17.1 µM) | 3.1 (≈ 8.39 µM) | 6.3 (≈ 17.1 µM) | 0.8 (≈ 2.17 µM) | 1.6 (≈ 4.33 µM) | ≤ 0.1 | 3.1 (≈ 8.39 µM)
Nc1ccc(C#Cc2ccc(C(=O)N[C@@H](CO)C(=O)NO)cc2)cc1 [Compound 376, 4-[2-(4-aminophenyl)ethynyl]-N-[(1S)-2-(hydroxyamino)-1-(hydroxymethyl)-2-oxo-ethyl]benzamide] | 1.6 (≈ 4.71 µM) | 3.1 (≈ 9.14 µM) | 0.8 (≈ 2.36 µM) | 6.3 (≈ 18.6 µM) | 3.1 (≈ 9.14 µM) | 6.3 (≈ 18.6 µM) | 0.8 (≈ 2.36 µM) | 1.6 (≈ 4.71 µM) | ≤ 0.1 | 1.6 (≈ 4.71 µM)
